The test system of assay [1] is HTT mRNA. Nature of the assay: RT-qPCR splicing assay, HTT canonical junction (CJ) and alternative junction (AJ) mRNA. The class given is cell-based, human. To be noted: Homo sapiens. In short, it runs like this: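 A673 or K562 cells were treated for 24 h at 37 °C with an 11-point 3-fold compound dilution series (top final concentration 10 uM, DMSO ≤0.25%). After lysis, one-step TaqMan RT-qPCR quantified junction transcripts, normalized to PPIA for A673 or to GAPDH/GUSB for K562.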

The subject of assay [2] is MYB. Nature of the assay: HiBiT protein abundance assay, MYB HiBiT K562 cell line. The note with it: HiBiT K562 cell line, 24 hours, top dose 10 μM; read-out: Effect on protein abundance, MYB (IC50 category). The class given is cell-based, human. An outline of the steps:
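Endogenous targets in K562 knock-in lines carried a HiBiT tag and were treated for 24 h at 37 °C with 10-point 3-fold dilutions (top 10 μM final, DMSO ≤0.25%). Abundance was read as lytic Nano-Glo HiBiT luminescence. IC50 came from a four-parameter logistic fit of normalized response.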
In general terms: With HiBiT, luminescence reflects the tagged protein that the partner subunit can reach.

In assay [3] the test system is K562 (human chronic myelogenous leukemia) cells. Nature of the assay: Cell Titer Glo 2.0 cell viability assay. To be noted: Homo sapiens, K562, 72 h, K562 cells, 72 hours, Cell Titer Glo 2.0; read-out: K562 GI50. It counts as cell-based. A general note: In ATP-based viability assays light output follows the ATP content of the culture.

Like-named read-outs stand apart in the source and are kept apart here. Bounds are passed on as bounds.

Broadly, the IC50 is the concentration at which inhibition is half-maximal. The term AC50 denotes the concentration at which the activity in the assay is half-maximal. As usually defined, the GI50 is the concentration giving 50% growth inhibition.

Take `CNc1cc(-c2cc(C#N)c3nc(C)cn3c2)cc2ncn(C3CCNCC3)c(=O)c12` [Compound 363, 2-methyl-6-[5-(methylamino)-4-oxo-3-(piperidin-4-yl)quinazolin-7-yl]imidazo[1,2-a]pyridine-8-carbonitrile]: the IC50 is above 10 µM in assay [1] (decrease in HTT canonical junction (CJ) mRNA, RT-qPCR, read-out: HTT CJ IC50); above 10 µM in assay [1] (Table 5 panel, canonical junction qPCR, compound concentration having 50% response in CJ decrease, read-out: HTT IC50 (decrease in CJ mRNA levels)); 1 to 10 µM in assay [2]. The AC50 in assay [1] (increase in HTT alternative junction (AJ) mRNA, RT-qPCR, read-out: HTT AJ AC50) was above 10 µM. For the same molecule, in assay [3], the GI50 fell in the range of 1 to 10 µM.

The values are drawn from US20250332173A1, “COMPOUNDS AND METHODS FOR MODULATING NUCLEIC ACID SPLICING” (REMIX THERAPEUTICS INC., priority 2021, published 2025).
